Values quoted from earlier work as cited in patent US4199515A (priority 1978, dated 1980).

Test system: gram-positive bacteria
Details: background statement

CO[C@@H]1[C@H](C)[C@H]([C@]2(C)CC[C@H]([C@]3(C)CC[C@]4(C[C@H](OC)[C@@H](C)[C@@H]([C@@H](C)[C@H]5O[C@@](O)([C@H](C)C(=O)O)[C@H](C)[C@@H](OC)[C@H]5C)O4)O3)O2)O[C@H]1[C@H]1O[C@](C)(O)[C@H](C)[C@@H](OC)[C@@H]1C [Lonomycin]
activity to gram positive bacteria: activity to gram positive bacteria
